Data reported in ChEMBL document CHEMBL1201862, “PubChem BioAssay data set” (2004).
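Cells were grown in 96-well plates and exposed to each compound for 48 hours at five concentrations; endpoints were interpolated linearly between bracketing concentrations, or set to the highest concentration if not reached. GI50 = concentration required for 50% inhibition of growth.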 Activity calls are given as the source filed them. No stated cut-off is given here; in the data, active = GI50 up to about 1.1 µM and inactive = higher. Where a SMILES comes first, the peptide text is derived from it. [ ]: non-standard residue; d: D form. The star is where a group is joined. ξ: configuration not given here. ξD = NC(CC(=O)O)C(=O)O; Ac3c = NC1(C(=O)O)CC1; Boc = CC(C)(C)OC(=O)*; OBn = c1ccc(CO*)cc1

Experiments:
Assay in all cases: DTP human tumour cell line panel, 48 h
LOX IMVI = tested on: LOX IMVI
SNB-75 = tested on: SNB-75
MDA-N = tested on: MDA-N
MDA-MB-435 = tested on: MDA-MB-435
SN12C = tested on: SN12C
OVCAR-8 = tested on: OVCAR-8
M14 = tested on: M14
NCI-H522 = tested on: NCI-H522
MOLT-4 = tested on: MOLT-4
UO-31 = tested on: UO-31
SW-620 = tested on: SW-620
SK-OV-3 = tested on: SK-OV-3
HT-29 = tested on: HT-29
KM12 = tested on: KM12
TK-10 = tested on: TK-10
DU-145 = tested on: DU-145
EKVX = tested on: EKVX
K562 = tested on: K562
T47D = tested on: T47D

Structure (SMILES) | GI50 (LOX IMVI) | GI50 (SNB-75) | GI50 (MDA-N) | GI50 (MDA-MB-435) | GI50 (SN12C) | GI50 (OVCAR-8) | GI50 (M14) | GI50 (NCI-H522) | GI50 (MOLT-4) | GI50 (UO-31) | GI50 (SW-620) | GI50 (SK-OV-3) | GI50 (HT-29) | GI50 (KM12) | GI50 (TK-10) | GI50 (DU-145) | GI50 (EKVX) | GI50 (K562) | GI50 (T47D)
O=C(CCc1ccc(O)c(O)c1)NCCc1cc(O)c(O)c(O)c1 | 17.7 µM (inactive) | 50.6 µM (inactive) | 16.9 µM (inactive) | 17.6 µM (inactive) | 17.9 µM (inactive) | 20.4 µM (inactive) | 22.4 µM (inactive) | 17.2 µM (inactive) | 21.6 µM (inactive) | 44.6 µM (inactive) | 18.8 µM (inactive) | > 100 µM (inactive) | 17.9 µM (inactive) | 25.4 µM (inactive) | > 100 µM (inactive) | 64.7 µM (inactive) | 22.9 µM (inactive) | 18.3 µM (inactive) | 70.8 µM (inactive)
NCCCc1c(-c2ccccc2)[nH]c(N)nc1=O | > 100 µM (inactive) | > 100 µM (inactive) | > 100 µM (inactive) | > 100 µM (inactive) | > 100 µM (inactive) | > 100 µM (inactive) | > 100 µM (inactive) | > 100 µM (inactive) | > 100 µM (inactive) | > 100 µM (inactive) | > 100 µM (inactive) | > 100 µM (inactive) | > 100 µM (inactive) | > 100 µM (inactive) | > 100 µM (inactive) | > 100 µM (inactive) | > 100 µM (inactive) | > 100 µM (inactive) | > 100 µM (inactive)
COC(=O)C1(NC(=O)C(CC(=O)OCc2ccccc2)NC(=O)OC(C)(C)C)CC1 (configuration not stated) (Boc-[ξD](OBn)-[Ac3c]-OMe) | > 100 µM (inactive) | > 100 µM (inactive) | > 100 µM (inactive) | > 100 µM (inactive) | > 100 µM (inactive) | > 100 µM (inactive) | > 100 µM (inactive) | > 100 µM (inactive) | > 100 µM (inactive) | > 100 µM (inactive) | > 100 µM (inactive) | 19.6 µM (inactive) | > 100 µM (inactive) | > 100 µM (inactive) | > 100 µM (inactive) | > 100 µM (inactive) | > 100 µM (inactive) | > 100 µM (inactive) | > 100 µM (inactive)
CCCCCN1C(=O)C(Cc2ccccc2)N=C(c2ccc(O)cc2)c2cc(Cl)ccc21 (configuration not stated) | 6.56 µM (inactive) | 4.61 µM (inactive) | > 21.2 µM (inactive) | 9.53 µM (inactive) | > 20.7 µM (inactive) | 8.87 µM (inactive) | 11.2 µM (inactive) | 2.55 µM (inactive) | 4.09 µM (inactive) | 10.4 µM (inactive) | 10.9 µM (inactive) | 18.6 µM (inactive) | 9.06 µM (inactive) | 10.1 µM (inactive) | 12.9 µM (inactive) | 15.8 µM (inactive) | 8.41 µM (inactive) | 3.23 µM (inactive) | 3.72 µM (inactive)
CC[C@@]1(O)C(=O)OCc2c1cc1n(c2=O)Cc2c-1nc1ccccc1c2/C=N\NC(=O)C[n+]1ccccc1 | 0.218 µM (active) | 0.23 µM (active) | 4.02 µM (inactive) | 3.56 µM (inactive) | 0.119 µM (active) | 0.398 µM (active) | 0.457 µM (active) | 0.991 µM (active) | 0.0552 µM (active) | 0.29 µM (active) | 1.33 µM (inactive) | 0.617 µM (active) | 2.33 µM (inactive) | 8.55 µM (inactive) | 20.5 µM (inactive) | 0.0944 µM (active) | > 28.1 µM (inactive) | 1.02 µM (active) | 0.0346 µM (active)
Cc1nc(O)c(O)c(CN2CCCCC2)n1 | > 100 µM (inactive) | > 100 µM (inactive) | > 100 µM (inactive) | > 100 µM (inactive) | > 100 µM (inactive) | > 100 µM (inactive) | > 100 µM (inactive) | > 100 µM (inactive) | > 100 µM (inactive) | > 100 µM (inactive) | > 100 µM (inactive) | > 100 µM (inactive) | > 100 µM (inactive) | > 100 µM (inactive) | > 100 µM (inactive) | > 100 µM (inactive) | > 100 µM (inactive) | > 100 µM (inactive) | > 100 µM (inactive)
Cc1nn(C(=O)Cc2ccccc2)c2c1C(c1ccc(/C=C/c3ccccc3)cc1)SC(=N)N2 (configuration not stated) | > 100 µM (inactive) | > 100 µM (inactive) | > 100 µM (inactive) | > 100 µM (inactive) | > 100 µM (inactive) | > 100 µM (inactive) | > 100 µM (inactive) | > 100 µM (inactive) | > 100 µM (inactive) | > 100 µM (inactive) | > 100 µM (inactive) | > 100 µM (inactive) | > 100 µM (inactive) | > 100 µM (inactive) | > 100 µM (inactive) | > 100 µM (inactive) | > 100 µM (inactive) | > 100 µM (inactive) | > 100 µM (inactive)
CC(Nc1ccc(Cl)c(Cl)c1)c1ccncc1 (configuration not stated) | 18.4 µM (inactive) | 23 µM (inactive) | 24.6 µM (inactive) | 29.4 µM (inactive) | 50.7 µM (inactive) | 21.8 µM (inactive) | 29 µM (inactive) | 12.5 µM (inactive) | 19.5 µM (inactive) | 11.6 µM (inactive) | 20.7 µM (inactive) | 11.4 µM (inactive) | 23.7 µM (inactive) | 14.9 µM (inactive) | 31.9 µM (inactive) | 30.2 µM (inactive) | 39.9 µM (inactive) | 45.3 µM (inactive) | 51.6 µM (inactive)
